The subject of series [1] is Staphylococcus epidermidis ATCC 14990. The series is described as follows: MBFIC assay (biofilm formation inhibition, resazurin). It counts as cell-based. The note with it: for MBFIC S. epidermidis, CL: contact lenses (CL, Etafilcon A hydrogel) in 24-well plates; for MBFIC S. epidermidis, CL / MBFIC S. epidermidis, PS: ca. 5 × 10^8 CFU/mL in MHB II, 37 °C, 18 h, resazurin, visual, triplicate; for MBFIC S. epidermidis, PS: polystyrene plates (PS), 96-well. How it is done: (§1) To determine the inhibitory effect of antimicrobials on the formation of biofilm on hydrophobic surfaces, the bacterial suspensions of strains (initial inoculum of ca. 5 × 10^8 CFU/mL in MHB II medium supplemented with antimicrobials) were cultured on 96-well PS at 37 °C for 18 h under aerobic conditions. After incubation, the suspensions were aspirated, and the wells were rinsed three times with sterile phosphate buffer PBS (AppliChem, Darmstadt, Germany) in order to remove the planktonic cells. Resazurin (final concentration per sample = 0.005%) was applied as a cell viability reagent for reading the results. In contact with the living cells, the dye is metabolized by bacterial dehydrogenases, resulting in a reduction of blue resazurin to pink resorufin. All assays were performed in triplicate and included the growth controls (positive controls: bacterial suspensions without antimicrobials) and the sterility controls (negative controls: a sterile MBH medium). After 1h of incubation, a visual evaluation of results was made. […] In a preliminary study, it was established that the application of lipopeptides at a concentration found active from visual evaluation caused the reduction of bacterial metabolism to approximately 10% (or less) of the positive control once the results were evaluated with a spectrophotometer. After 1 h of incubation with the dye, absorbance was measured at 570 and 600 nm using a microplate reader (Thermo Fisher Scientific, Waltham, MA, USA). The metabolic activity of bacteria in the samples was measured according to the formula presented in the previous paper.
(§2) The MBFIC assay with CL was applied in order to access the influence of lipopeptides on the biofilm formation on hydrogel surfaces. The entire sterile CL (1-Day Acuvue Moist, containing Etafilcon A., purchased from Johnson & Johnson (Vision Care, Jacksonsville, FL, USA), were placed in 24-well PS (Orange Scientific, Braine-l’ Alleud, Belgium) and the MBFICs were determined according to the above protocol.
A general note: The colour change of resazurin is a common sign of viable cells or microbes.

Series [2] concerns Staphylococcus aureus ATCC 25923. The description is as above. The format is cell-based. The note with it: ca. 5 × 10^8 CFU/mL in MHB II, 37 °C, 18 h, resazurin, visual, triplicate; for MBFIC S. aureus, CL: contact lenses (CL, Etafilcon A hydrogel) in 24-well plates; for MBFIC S. aureus, PS: polystyrene plates (PS), 96-well. How it is done:
as §1, §2

In series [3] the test system is Escherichia coli ATCC 25922. Described as above. It counts as cell-based. Conditions: ca. 5 × 10^8 CFU/mL in MHB II, 37 °C, 18 h, visual, triplicate; for MBFIC E. coli, CL: contact lenses (CL, Etafilcon A hydrogel) in 24-well plates; for MBFIC E. coli, PS: polystyrene plates (PS), 96-well. How it is done: as §1, §2
Series [4] concerns Pseudomonas aeruginosa ATCC 9027. Described as above. It counts as cell-based. Conditions: ca. 5 × 10^8 CFU/mL in MHB II, 37 °C, 18 h, visual, triplicate; for MBFIC P. aeruginosa, CL: contact lenses (CL, Etafilcon A hydrogel) in 24-well plates; for MBFIC P. aeruginosa, PS: polystyrene plates (PS), 96-well. How it is done: as §1, §2
Series [5] concerns Proteus mirabilis PCM 543. Described as above. The format is cell-based. Conditions: ca. 5 × 10^8 CFU/mL in MHB II, 37 °C, 18 h, visual, triplicate; for MBFIC P. mirabilis, CL: contact lenses (CL, Etafilcon A hydrogel) in 24-well plates; for MBFIC P. mirabilis, PS: polystyrene plates (PS), 96-well. How it is done:
as §1, §2

In series [6] the test system is Enterococcus faecalis ATCC 29212. The series is described as above. It counts as cell-based. Conditions: ca. 5 × 10^8 CFU/mL in MHB II, 37 °C, 18 h, visual, triplicate; for MBFIC E. faecalis, CL: contact lenses (CL, Etafilcon A hydrogel) in 24-well plates; for MBFIC E. faecalis, PS: polystyrene plates (PS), 96-well. How it is done:
as §1, §2

Series [7] deals with Staphylococcus epidermidis ATCC 14990. The format is cell-based. How it is done:
(§3) The reference strains of gram-positive and gram-negative bacteria (Table 2) were obtained from the Polish Collection of Microorganisms (Polish Academy of Science, Wroclaw, Poland). The microorganisms were cultured in Muller Hinton Broth II (MHB II, Biocorp, Warsaw, Poland), overnight, at 37 °C. The MICs of synthetic lipopeptides and conventional antimicrobials were determined using the broth microdilution method according to the Clinical and Laboratory Standard Institute (CLSI) guidelines on reference strains. […] The PS were incubated under aerobic conditions at 37 °C for 18 h. The MIC (μg/mL) was assumed as the lowest concentration of the compound that inhibited the growth of the microorganisms. All experiments were performed in triplicate and included the growth and sterility controls.

The subject of series [8] is Staphylococcus aureus ATCC 25923. It counts as cell-based. How it is done:
as §3

The subject of series [9] is Escherichia coli ATCC 25922. It counts as cell-based. How it is done:
as §3

The test system of series [10] is Pseudomonas aeruginosa ATCC 9027. The format is cell-based. How it is done:
as §3

Series [11] has as its system Proteus mirabilis PCM 543. The format is cell-based. As for the experimental part: as §3
Series [12] relates to Enterococcus faecalis ATCC 29212. The format is cell-based. How it is done: as §3
Series [13] is described as follows: RP-HPLC retention to evaluate the hydrophobicity of lipopeptides. It counts as physicochemical. The note with it: chromatographic, Luna C18(2) 3.0 × 100 mm, 5.0 µm, linear 20–80% acetonitrile in water over 10 min, 0.1% formic acid, 0.5 mL/min, UV 214 nm, used to evaluate hydrophobicity. How it is done:
The crude peptide was lyophilized and subsequently purified by RP-HPLC. The purifications were carried out on a Phenomenex Gemini-NX C18 column (21.20 × 100 mm, 5.0 µm particle size, and 110 Å pore size). Acetonitrile and water, both containing 0.1% of TFA, were used as the mobile phase. UV detection at 214 nm was used. The crude peptides were eluted with a linear 20–80% acetonitrile gradient in deionized water over 60 min at a flow rate of 10.0 mL/min. The purity and identity of the peptides were confirmed with LC-MS analysis. A Waters Alliance e2695 RP-HPLC system (Waters, Milford, MA, USA) with Waters 2998 PDA (Waters, Milford, MA, USA) and Acquity QDA detectors (Empower®3 software, Database Version 7.21.00.00) was used. All analyses were carried out on a Phenomenex, Luna C18(2) column (3.0 × 100 mm, 5.0 µm particle size, 100 Å pore size). The samples were analyzed with a linear 20–80% acetonitrile gradient in deionized water over 10 min at a flow rate of 0.5 mL/min with UV detection at 214 nm. Both eluents contained 0.1% (v/v) of formic acid. The pure fractions (>95%, by HPLC analysis) were collected and lyophilized. The retention time and percentage of ACN (%) at which each peptide was eluted are included in Table 1 to evaluate the hydrophobicity of lipopeptides. The identity of all compounds was confirmed using mass spectrometry (Waters Alliance e2695 system with Acquity QDA detector, Waters, Milford, MA, USA) with electrospray ionization in positive ion mode (ESI-MS). In this mode, a proton is attached to basic moieties (amine groups, guanidine groups). The theoretical mass of the peptide was calculated and then expected ions (m/z—mass to charge ratio) were compared to measured m/z. The results are presented in Table 1, and mass spectra are presented in the Supplementary Materials.

[14] abbreviates: MHB II, ca. 5 × 10^6 CFU/mL, 96-well PS, 1–512 μg/mL, 37 °C, 18 h, triplicate.

≈ marks a conversion by molar mass, not a printed value. Where “and” joins values, the source holds several entries; their conditions need not be identical. Equal entries are not always repeated. Where two headings read alike, the source gives them in different places. Where a SMILES comes first, the peptide text is derived from it. The star is where a group is joined. Palmitoyl = CCCCCCCCCCCCCCCC(=O)*

As for `CCCCCCCCCCCCCCCC(=O)N[C@@H](CCCCN)C(=O)N[C@@H](CCCNC(=N)N)C(N)=O` [Lipopeptide 8, C16-KR-NH2] (Palmitoyl-Lys-Arg-NH2), in [1], the “MBFIC S. epidermidis, CL” value worked out at 32 µg/mL and the “MBFIC S. epidermidis, PS” value was 16 µg/mL. In [2], the “MBFIC S. aureus, CL” value came to 16 µg/mL and the “MBFIC S. aureus, PS” value was 8 µg/mL. In series [3], the “MBFIC E. coli, CL” value is 64 μg/mL and 64/64 μg/mL; the “MBFIC E. coli, PS” value is 64 μg/mL and 64/64 μg/mL. Also, in [4], the “MBFIC P. aeruginosa, CL” value came to 128 µg/mL and the “MBFIC P. aeruginosa, PS” value was found to be 512 µg/mL. Further, in series [5], the “MBFIC P. mirabilis, CL” value is given as 512/512 μg/mL and the “MBFIC P. mirabilis, PS” value is on record as 512/512 μg/mL. In series [6], the “MBFIC E. faecalis, CL” value is 64/64 μg/mL and the “MBFIC E. faecalis, PS” value was 64/64 μg/mL. For the same compound, in [7] (ATCC 14990, 18 h), the “MIC S. epidermidis” value was found to be 8 mg/L (≈ 14.8 µM). Further, the “MIC S. aureus” value in series [8] (ATCC 25923, 18 h) amounted to 32 mg/L (≈ 59.3 µM). Further, in series [9] (ATCC 25922, 18 h), the “MIC E. coli” value was found to be 64 mg/L (≈ 119 µM). The “MIC P. aeruginosa” value in [10] (ATCC 9027, 18 h) is 128 mg/L (≈ 237 µM). For the same compound, the “MIC P. mirabilis” value in series [11] (PCM 543, 18 h) amounted to 512 mg/L (≈ 948 µM). Also, in series [12] (ATCC 29212, 18 h), the “MIC E. faecalis” value was 64 mg/L (≈ 119 µM). In series [13], the “% ACN at which the peptide was eluted” value came to 44.3% and the “tR' (adjusted retention time)” value was 4.06 min.
As to (C10)2-KKKK-NH2 [Lipopeptide 9], in series [1], the “MBFIC S. epidermidis, CL” value came out at 16 µg/mL and the “MBFIC S. epidermidis, PS” value is 8 µg/mL. In series [1] (range over PS and CL), the “concentrations inhibiting formation of SE biofilm (MBFIC range)” value was 8 to 16 µg/mL. Also, in series [2], the “MBFIC S. aureus, CL” value came to 16 µg/mL and the “MBFIC S. aureus, PS” value is 8 µg/mL. In series [3], the “MBFIC E. coli, CL” value was 64 µg/mL and the “MBFIC E. coli, PS” value amounted to 128 µg/mL. Besides, in series [4], the “MBFIC P. aeruginosa, CL” value is 64 μg/mL and 64/64 μg/mL; the “MBFIC P. aeruginosa, PS” value is 64 μg/mL and 64/64 μg/mL. In series [5], the “MBFIC P. mirabilis, CL” value is listed as 512/512 μg/mL and the “MBFIC P. mirabilis, PS” value is 512/512 μg/mL. In addition, in series [6], the “MBFIC E. faecalis, CL” value is 64/64 μg/mL and the “MBFIC E. faecalis, PS” value is 64/64 μg/mL. In addition, in [7] (setting [14]), the “MIC S. epidermidis” value came to 2 mg/L. The “MIC S. aureus” value in series [8] (setting [14]) amounted to 8 mg/L. In [9] (setting [14]), the “MIC E. coli” value stood at 16 mg/L. Moreover, the “MIC P. aeruginosa” value in [10] (setting [14]) is 16 mg/L. In [11] (setting [14]), the “MIC P. mirabilis” value was found to be 512 mg/L. For the same compound, the “MIC E. faecalis” value in series [12] (setting [14]) turned out to be 16 mg/L. Moreover, in series [13], the “% ACN at which the peptide was eluted” value came to 39.6% and the “tR' (adjusted retention time)” value turned out to be 3.27 min.
In the case of `CCCCCCCCCCCCCCCC(=O)N[C@@H](CCCCN)C(=O)NCC(=O)N[C@@H](CCCCN)C(N)=O` [Lipopeptide 5, C16-KGK-NH2] (Palmitoyl-Lys-Gly-Lys-NH2), in series [1], the “MBFIC S. epidermidis, CL” value is 64 µg/mL and the “MBFIC S. epidermidis, PS” value turned out to be 32 µg/mL. In addition, in series [2], the “MBFIC S. aureus, CL” value is listed as 32/32 μg/mL and the “MBFIC S. aureus, PS” value is 32/32 μg/mL. For the same compound, in [3], the “MBFIC E. coli, CL” value turned out to be 128 µg/mL and the “MBFIC E. coli, PS” value was 64 µg/mL. Further, in series [4], the “MBFIC P. aeruginosa, CL” value was determined as 256 µg/mL and the “MBFIC P. aeruginosa, PS” value was 512 µg/mL. Further, in series [5], the “MBFIC P. mirabilis, CL” value is >512/512 μg/mL and the “MBFIC P. mirabilis, PS” value is >512/512 μg/mL. Moreover, in [6], the “MBFIC E. faecalis, CL” value was 64/64 μg/mL and the “MBFIC E. faecalis, PS” value is recorded as 64/64 μg/mL. Also, in [7] (ATCC 14990, 18 h), the “MIC S. epidermidis” value stood at 32 mg/L (≈ 56.3 µM). The “MIC S. aureus” value in series [8] (ATCC 25923, 18 h) is 64 mg/L (≈ 113 µM). Further, the “MIC E. coli” value in [9] (ATCC 25922, 18 h) was 16 mg/L (≈ 28.1 µM). Further, the “MIC P. aeruginosa” value in series [10] (ATCC 9027, 18 h) worked out at 256 mg/L (≈ 450 µM). Also, the “MIC P. mirabilis” value in series [11] (PCM 543, 18 h) amounted to 512 mg/L (≈ 900 µM). Besides, in series [12] (ATCC 29212, 18 h), the “MIC E. faecalis” value stood at 32 mg/L (≈ 56.3 µM). Also, in series [13], the “% ACN at which the peptide was eluted” value was found to be 43.7% and the “tR' (adjusted retention time)” value is 3.95 min.
